Tests used:
CDK2 = molecular target: T1, CDK2 (Homo sapiens, UniProt P24941); assay: CDK protein degradation activity (Western blotting), CDK2; format: cell-based; conditions: MDA-MB-231 cells, 16 hours, Western blot
T1 construct: endogenous in cells; host or cells: MDA-MB-231
Procedure, shortened: (§1)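 Degradation is judged from CDK2 and CDK9 band intensity relative to tubulin and DMSO-treated cells, after 16 h exposure of MDA-MB-231 cells to three compound concentrations (100 nM, 1 μM, 10 μM).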

CDK9 = molecular target: T2, CDK9 (Homo sapiens, UniProt P50750); assay: CDK protein degradation activity (Western blotting), CDK9; format: cell-based; conditions: MDA-MB-231 cells, 16 hours, Western blot
T2 construct: endogenous in cells; host or cells: MDA-MB-231
Procedure, shortened: as §1

T2 sequence (P50750 whole entry): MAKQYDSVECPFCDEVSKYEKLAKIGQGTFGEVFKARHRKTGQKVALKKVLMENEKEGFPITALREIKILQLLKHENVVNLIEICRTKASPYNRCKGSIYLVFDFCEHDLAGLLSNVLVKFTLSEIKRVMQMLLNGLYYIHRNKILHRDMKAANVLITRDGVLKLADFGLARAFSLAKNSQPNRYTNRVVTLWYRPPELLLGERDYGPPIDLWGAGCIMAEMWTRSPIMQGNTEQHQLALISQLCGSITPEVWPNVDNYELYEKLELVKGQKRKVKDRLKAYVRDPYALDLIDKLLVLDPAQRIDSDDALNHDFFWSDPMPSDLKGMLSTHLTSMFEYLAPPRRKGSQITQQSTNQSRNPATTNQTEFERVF

Row | SMILES | Enzyme degradation CDK2 (% remaining) @ 0.1 μM (CDK2) | Enzyme degradation CDK2 (% remaining) @ 1 μM (CDK2) | Enzyme degradation CDK2 (% remaining) @ 10 μM (CDK2) | Enzyme degradation CDK9 (% remaining) @ 0.1 μM (CDK9) | Enzyme degradation CDK9 (% remaining) @ 1 μM (CDK9) | Enzyme degradation CDK9 (% remaining) @ 10 μM (CDK9)
1 | O=C1CC[C@H](N2C(=O)c3cc(F)c(N4CCC(C(=O)N5CCC(CN6CCN(c7ccc(Nc8ncnc9c8ncn9C8CC(NC(=O)c9cccc(Cl)n9)C8)cc7)CC6)CC5)CC4)cc3C2=O)C(=O)N1 (stereo partly drawn) [Compound 453, 6-chloro-N-((1s,3s)-3-(6-((4-(4-((1-(1-(2-(2,6-dioxopiperidin-3-yl)-6-fluoro-1,3-dioxoisoindolin-5-yl)piperidin-4-carbonyl)piperidin-4-yl)methyl)piperazin-1-yl)phenyl)amino)-9H-purin-9-yl)cyclobutyl)picolinamide] | 20% | 20% | 30% | 0/0/0% | 0/0/0% | 0/0/0%
2 | N#Cc1cccc(C(=O)NC2CC(n3cnc4c(Nc5ccc(N6CCN(CC7CCN(C(=O)C8CN(c9ccc%10c(c9)C(=O)N([C@H]9CCC(=O)NC9=O)C%10=O)C8)CC7)CC6)cc5)ncnc43)C2)n1 (stereo partly drawn) [Compound 454, 6-cyano-N-((1s,3s)-3-(6-((4-(4-((1-(1-(2-(2,6-dioxopiperidin-3-yl)-1,3-dioxoisoindolin-5-yl)azetidin-3-carbonyl)piperidin-4-yl)methyl)piperazin-1-yl)phenyl)amino)-9H-purin-9-yl)cyclobutyl)picolinamide] | 30% | 20% | 10% | 0/0/0% | 0/0/0% | 0/0/0%
3 | N#Cc1cccc(C(=O)N[C@H]2C[C@@H](n3cnc4c(Nc5ccc(N6CCN(CC7CCN(C(=O)C8CCN(c9ccc%10c(c9)C(=O)N(C9CCC(=O)NC9=O)C%10=O)CC8)CC7)CC6)cc5)ncnc43)C2)n1 (stereo partly drawn) [Compound 455, 6-cyano-N-((1s,3s)-3-(6-((4-(4-((1-(1-(2-(2,6-dioxopiperidin-3-yl)-1,3-dioxoisoindolin-5-yl)piperidin-4-carbonyl)piperidin-4-yl)methyl)piperazin-1-yl)phenyl)amino)-9H-purin-9-yl)cyclobutyl)picolinamide] | 30% | 20% | 20% | 0/0/0% | 0/0/0% | 0/0/0%
4 | O=C1CC[C@H](N2C(=O)c3cc(F)c(N4CCC(C(=O)N5CCC(CN6CCN(c7ccc(Nc8ncnc9c8ncn9C8CC(NC(=O)Cc9ccccc9)C8)cc7)CC6)CC5)CC4)cc3C2=O)C(=O)N1 (stereo partly drawn) [Compound 456, N-((1s,3s)-3-(6-((4-(4-((1-(1-(2-(2,6-dioxopiperidin-3-yl)-6-fluoro-1,3-dioxoisoindolin-5-yl)piperidin-4-carbonyl)piperidin-4-yl)methyl)piperazin-1-yl)phenyl)amino)-9H-purin-9-yl)cyclobutyl)-2-phenylacetamide] | 50% | 60% | 70% | 0% | 0% | 10%
5 | O=C1CC[C@H](N2C(=O)c3cc(F)c(N4CCC(C(=O)N5CCC(CCN6CCN(c7ccc(Nc8ncnc9c8ncn9[C@H]8C[C@@H](NC(=O)Cc9ccccc9)C8)cc7)CC6)CC5)CC4)cc3C2=O)C(=O)N1 [Compound 457, N-((1s,3s)-3-(6-((4-(4-(2-(1-(1-(2-(2,6-dioxopiperidin-3-yl)-6-fluoro-1,3-dioxoisoindolin-5-yl)piperidin-4-carbonyl)piperidin-4-yl)ethyl)piperazin-1-yl)phenyl)amino)-9H-purin-9-yl)cyclobutyl)-2-phenylacetamide] | 80% | 60% | 60% | 20% | 0% | 0%
6 | O=C1CC[C@H](N2C(=O)c3cc(F)c(N4CCC(CCCN5CCN(c6ccc(Nc7ncnc8c7ncn8[C@H]7C[C@@H](NC(=O)Cc8ccccc8)C7)cc6)CC5)CC4)cc3C2=O)C(=O)N1 [Compound 458, N-((1s,3s)-3-(6-((4-(4-(3-(1-(2-(2,6-dioxopiperidin-3-yl)-6-fluoro-1,3-dioxoisoindolin-5-yl)piperidin-4-yl)propyl)piperazin-1-yl)phenyl)amino)-9H-purin-9-yl)cyclobutyl)-2-phenylacetamide] | 50/50/50% | 50/50/50% | 50/50/50% | 10% | 10% | 20%
7 | O=C1CC[C@H](N2C(=O)c3cc(F)c(N4CCC(C(=O)N5CCC(CCCN6CCN(c7ccc(Nc8ncnc9c8ncn9[C@H]8C[C@@H](NC(=O)Cc9ccccc9)C8)cc7)CC6)CC5)CC4)cc3C2=O)C(=O)N1 [Compound 459, N-((1s,3s)-3-(6-((4-(4-(3-(1-(1-(2-(2,6-dioxopiperidin-3-yl)-6-fluoro-1,3-dioxoisoindolin-5-yl)piperidin-4-carbonyl)piperidin-4-yl)propyl)piperazin-1-yl)phenyl)amino)-9H-purin-9-yl)cyclobutyl)-2-phenylacetamide] | 50% | 30% | 30% | 0/0/0% | 0/0/0% | 0/0/0%

The next lines start with the values.

Row | Enzyme degradation CDK2 (% remaining) @ 0.1 μM (CDK2) | Enzyme degradation CDK2 (% remaining) @ 1 μM (CDK2) | Enzyme degradation CDK2 (% remaining) @ 10 μM (CDK2) | Enzyme degradation CDK9 (% remaining) @ 0.1 μM (CDK9) | Enzyme degradation CDK9 (% remaining) @ 1 μM (CDK9) | Enzyme degradation CDK9 (% remaining) @ 10 μM (CDK9) | SMILES
8 | 40/40/40% | 40/40/40% | 40/40/40% | 0/0/0% | 0/0/0% | 0/0/0% | O=C1CC[C@H](N2C(=O)c3cc(F)c(N4CCC(C(=O)N5CCC6(CC5)CC(N5CCN(c7ccc(Nc8ncnc9c8ncn9C8CC(NC(=O)Cc9ccccc9)C8)cc7)CC5)C6)CC4)cc3C2=O)C(=O)N1 (stereo partly drawn) [Compound 460, N-((1s,3s)-3-(6-((4-(4-(7-(1-(2-(2,6-dioxopiperidin-3-yl)-6-fluoro-1,3-dioxoisoindolin-5-yl)piperidin-4-carbonyl)-7-azaspiro[3.5]nonan-2-yl)piperazin-1-yl)phenyl)amino)-9H-purin-9-yl)cyclobutyl)-2-phenylacetamide]
9 | 70% | 40% | 40% | 30% | 0% | 0% | O=C1CCC(N2C(=O)c3cc(F)c(N4CCC(C(=O)N5CCC(CN6CCC(CCNc7ncnc8c7ncn8[C@H]7C[C@@H](NC(=O)Cc8ccccc8)C7)CC6)CC5)CC4)cc3C2=O)C(=O)N1 (stereo partly drawn) [Compound 461, N-((1s,3s)-3-(6-((2-(1-((1-(1-(2-(2,6-dioxopiperidin-3-yl)-6-fluoro-1,3-dioxoisoindolin-5-yl)piperidin-4-carbonyl)piperidin-4-yl)methyl)piperidin-4-yl)ethyl)amino)-9H-purin-9-yl)cyclobutyl)-2-phenylacetamide]
10 | 30% | 20% | 20% | 0/0/0% | 0/0/0% | 0/0/0% | O=C1CC[C@H](N2C(=O)c3cc(F)c(N4CCC(C(=O)N5CCC(CN6CCN(c7ccc(Nc8ncnc9c8ncn9[C@H]8C[C@@H](NC(=O)c9c(Cl)cccc9Cl)C8)cc7)CC6)CC5)CC4)cc3C2=O)C(=O)N1 [Compound 462, 2,6-dichloro-N-((1s,3s)-3-(6-((4-(4-((1-(1-(2-(2,6-dioxopiperidin-3-yl)-6-fluoro-1,3-dioxoisoindolin-5-yl)piperidin-4-carbonyl)piperidin-4-yl)methyl)piperazin-1-yl)phenyl)amino)-9H-purin-9-yl)cyclobutyl)benzamide]
11 | 30/30/30% | 30/30/30% | 30/30/30% | 0/0/0% | 0/0/0% | 0/0/0% | O=C1CCC(N2C(=O)c3cc(F)c(N4CCC(C(=O)N5CCC(CCN6CCN(c7ccc(Nc8ncnc9c8ncn9[C@H]8C[C@@H](NC(=O)c9c(Cl)cccc9Cl)C8)cc7)CC6)CC5)CC4)cc3C2=O)C(=O)N1 (stereo partly drawn) [Compound 463, 2,6-dichloro-N-((1s,3s)-3-(6-((4-(4-(2-(1-(1-(2-(2,6-dioxopiperidin-3-yl)-6-fluoro-1,3-dioxoisoindolin-5-yl)piperidin-4-carbonyl)piperidin-4-yl)ethyl)piperazin-1-yl)phenyl)amino)-9H-purin-9-yl)cyclobutyl)benzamide]
12 | 40% | 30% | 30% | 0/0/0% | 0/0/0% | 0/0/0% | O=C1CC[C@H](N2C(=O)c3cc(F)c(N4CCC(C(=O)N5CCC6(CC5)CC(N5CCN(c7ccc(Nc8ncnc9c8ncn9C8CC(NC(=O)c9c(Cl)cccc9Cl)C8)cc7)CC5)C6)CC4)cc3C2=O)C(=O)N1 (stereo partly drawn) [Compound 464, 2,6-dichloro-N-((1s,3s)-3-(6-((4-(4-(7-(1-(2-(2,6-dioxopiperidin-3-yl)-6-fluoro-1,3-dioxoisoindolin-5-yl)piperidin-4-carbonyl)-7-azaspiro[3.5]nonan-2-yl)piperazin-1-yl)phenyl)amino)-9H-purin-9-yl)cyclobutyl)benzamide]
